Assays:
[1] = tested on: HCT116 human colon cancer cells; experiment: Cell proliferation (cell confluence), IncuCyte Live-Cell Analysis system; assay type: cell-based
[2] = tested on: mitochondrial complex III; experiment: Complex III-dependent oxygen consumption (OCR), Seahorse XF-96, HCT116 cells; assay type: cell-based, human; conditions: 24 hr, HCT116, n = 4
Outline: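 HCT116 cells were treated with compound for 24 hr, then acutely permeabilized. OCR was read on a Seahorse XF-96 in mannitol/sucrose buffer. Complex I: 10 mM pyruvate/1.5 mM malate plus 10 mM malonate. Complex III: 0.5 mM duroquinol with […] and 10 mM malonate. IC50 was fitted to rotenone- or antimycin A-inhibitable OCR.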

SMILES: NC(=O)NOCCCCCCCCCC[P+](c1ccccc1)(c1ccccc1)c1ccccc1.O=C([O-])C(F)(F)F [Mito10-HU, 10-[(carbamoylamino)oxy]-decyltriphenylphosphonium trifluoroacetate]
- antiproliferative effect, each alone (AZD-3965 experiment) ([1]; Mito10-HU (5 μM) or AZD-3965 (100 μM) independently, HCT-116): negligible antiproliferative effects
- effect on cell proliferation, each alone (syrosingopine experiment) ([1]; Mito10-HU (5 μM) or syrosingopine (7.5 μM) independently, HCT116): minimally affected cell proliferation

SMILES: NC(=O)NOCCCCCCCCCCCC[P+](c1ccccc1)(c1ccccc1)c1ccccc1.O=C([O-])C(F)(F)F [Mito12-HU, 12-[(carbamoylamino)oxy]-dodecyltriphenylphosphonium trifluoroacetate]
- Complex III activity (OCR, % of control) ([2]; 1.5 μM): 74.02 % of control
- Complex III activity (OCR, % of control) ([2]; 2 μM): 55.15 % of control
- Complex III activity (OCR, % of control) ([2]; 2.5 μM): 51.26 % of control
- Complex III activity (OCR, % of control) ([2]; 4 μM): 35.02 % of control
- Complex III activity (OCR, % of control) ([2]; 7.5 μM): 24.56 % of control

SMILES: NC(=O)NOCCCCCCCCCCCCCCCC[P+](c1ccccc1)(c1ccccc1)c1ccccc1.O=C([O-])C(F)(F)F [Mito16-HU, 16-[(carbamoylamino)oxy]-hexadecyltriphenylphosphonium trifluoroacetate]
- Complex III activity (OCR, % of control) ([2]; 0.4 μM): 81.38 % of control
- Complex III activity (OCR, % of control) ([2]; 0.5 μM): 79.37 % of control
- Complex III activity (OCR, % of control) ([2]; 0.6 μM): 80.12 % of control
- Complex III activity (OCR, % of control) ([2]; 0.8 μM): 68.47 % of control

SMILES: NC(=O)NOCCCCCCCCCCCCCCCCCCCC[P+](c1ccccc1)(c1ccccc1)c1ccccc1.O=C([O-])C(F)(F)F [Mito20-HU, 20-[(carbamoylamino)oxy]-eicosanyltriphenylphosphonium trifluoroacetate]
- Complex III activity (OCR, % of control) ([2]; 0.03 μM): 98.80 % of control
- Complex III activity (OCR, % of control) ([2]; 0.1 μM): 106.63 % of control
- Complex III activity (OCR, % of control) ([2]; 0.2 μM): 101.11 % of control
- Complex III activity (OCR, % of control) ([2]; 0.3 μM): 107.99 % of control
- Complex III activity (OCR, % of control) ([2]; 0.5 μM): 102.43 % of control
- Complex III activity (OCR, % of control) ([2]; 20 μM): 12.77 % of control

From patent publication US20240109925A1, “Enhanced Anti-Proliferative and Antitumor Immune Effects of Mitochondria-Targeted Hydroxyurea” (The Medical College of Wisconsin, Inc., priority 2021, published 2024)
